Among the data in US9790211B2, “5-amino-quinoline-8-carboxamide derivatives as 5-HT4 receptor agonists” (SUVEN LIFE SCIENCES LIMITED, priority 2013, dated 2017) are Emax and EC50 values, retold here.

For the assay, the target named is T1, recombinant human 5-HT4 receptor (Homo sapiens, UniProt Q13639).
T1 construct: expressed in transfected cells
Nature of the assay: Determination of EC50 values for 5-HT4 receptor (CHO cells, pCRE-Luc reporter). Format: cell-based. The settings on record: for EC50: 4 hours incubation. The protocol: Determination of EC50 Values for 5-HT4 Receptor
A stable CHO cell line expressing recombinant human 5-HT4 receptor and pCRE-Luc reporter system was used for cell-based assay. The assay offers a non-radioactive based approach to determine binding of a compound to GPCRs. In this specific assay, the level of intracellular cyclic AMP, which is modulated by activation, or inhibition of the receptor is measured. The recombinant cells harbor luciferase reporter gene under the control of cAMP response element.
The above cells were grown in 96 well clear bottom white plates in Hams F12 medium containing 10% fetal bovine serum (FBS). Prior to the addition of compounds or standard agonist, cells were serum starved overnight. Increasing concentrations of test compounds were added in OptiMEM medium to the cells. The incubation was continued at 37° C. in CO2 incubator for 4 hours. Medium was removed and cells were washed with phosphate buffered saline. The cells were lysed and luciferase activity was measured in a Luminometer. Luminescence units were plotted against the compound concentrations using Graphpad software.

Setting [1] is: CHO cells, human 5-HT4 receptor, luciferase reporter.
Setting [2] is: CHO, CHO cells, human 5-HT4 receptor, luciferase reporter, read-out: Emax.

Where two headings read alike, the source gives them in different places.

T1 sequence (Q13639 whole entry): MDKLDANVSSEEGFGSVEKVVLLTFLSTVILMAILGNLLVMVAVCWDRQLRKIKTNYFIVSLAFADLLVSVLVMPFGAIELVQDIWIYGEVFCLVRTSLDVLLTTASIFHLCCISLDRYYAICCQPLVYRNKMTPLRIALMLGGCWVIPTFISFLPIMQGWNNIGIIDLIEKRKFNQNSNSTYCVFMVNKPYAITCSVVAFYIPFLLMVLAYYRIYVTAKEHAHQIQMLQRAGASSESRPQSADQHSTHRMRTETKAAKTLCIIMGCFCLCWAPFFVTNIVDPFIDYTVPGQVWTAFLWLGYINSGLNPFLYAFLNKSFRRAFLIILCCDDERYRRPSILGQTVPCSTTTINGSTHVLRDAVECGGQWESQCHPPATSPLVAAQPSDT

For the compound “5-Amino-6-chloro-N-{[3-(2-fluoro-2-methyl propyl)-3-azabicyclo[3.1.0]hex-6-yl]methyl} quinoline-8-carboxamide [Example 47]”, under setting [1], the Emax is given as 79% and the EC50 turned out to be 1.6 nM.
`Nc1c(Cl)cc(C(=O)NCC2[C@H]3CN(CC4CCOCC4)C[C@@H]23)c2ncccc12` (mixture of isomers) [Example 15, 5-Amino-6-chloro-N-{[3-(tetrahydro-2H-pyran-4-ylmethyl)-3-azabicyclo[3.1.0]hex-6-yl]methyl}quinoline-8-carboxamide (exo/endo mixture)]: the EC50 under setting [1] is 0.5 nM. Under setting [2], the Emax amounted to 54%.
For `Nc1c(Cl)cc(C(=O)NC2CCN(CC3CCOCC3)CC2)c2ncccc12` [Example 3, 5-Amino-6-chloro-N-[1-(tetrahydro-2H-pyran-4-ylmethyl)-4-piperidinyl]quinoline-8-carboxamide], the EC50 under setting [1] is 2.5 nM. In addition, under setting [2], the Emax was 79%.
Turning to `Nc1c(Cl)cc(C(=O)NCC2CCN(C3CCOCC3)CC2)c2ncccc12` [Example 6, 5-Amino-6-chloro-N-{[1-(tetrahydro-2H-pyran-4-yl)-4-piperidinyl]methyl}quinoline-8-carboxamide L(+)-tartarate], the Emax (CHO) was determined as 56%. In addition, the EC50 under setting [1] worked out at 0.1 nM.
For the compound `Nc1c(Cl)cc(C(=O)NCC2C3CN(CC4CCOC4)CC23)c2ncccc12` (stereo not shown) [Example 7, 5-Amino-6-chloro-N-{[3-(tetrahydro-3-furanylmethyl)-3-azabicyclo[3.1.0]hex-6-yl]methyl}quinoline-8-carboxamide], the EC50 under setting [1] came to 0.57 nM. Besides, the Emax under setting [2] came out at 71%.
Regarding `CC(C)CN1CC2C(CNC(=O)c3cc(Cl)c(N)c4cccnc34)C2C1` (stereo not drawn) [Example 8, 5-Amino-6-chloro-N-{[3-isobutyl-3-azabicyclo[3.1.0]hex-6-yl]methyl}quinoline-8-carboxamide L(+)-tartarate], the Emax (CHO) was determined as 87%. Besides, the EC50 under setting [1] is 0.7 nM.
The like results for `Nc1c(Cl)cc(C(=O)NCC2C3CN(CC4CC4)CC23)c2ncccc12` (stereo not drawn) [Example 9, 5-Amino-6-chloro-N-{[3-cyclopropylmethyl-3-azabicyclo[3.1.0]hex-6-yl]methyl} quinoline-8-carboxamide L(+)-tartarate] were, in that order, 87% and 0.8 nM.
As for `CC(C)N1CC2C(CNC(=O)c3cc(Cl)c(N)c4cccnc34)C2C1` (stereo not drawn) [Example 10, 5-Amino-6-chloro-N-{[3-isopropyl-3-azabicyclo[3.1.0]hex-6-yl]methyl}quinoline-8-carboxamide L(+)-tartarate], the Emax (CHO) worked out at 83%. Under setting [1], the half-maximal effective concentration (EC50) came to 1.5 nM.
For `Nc1c(F)cc(C(=O)NCC2CCN(CC3CCOCC3)CC2)c2ncccc12` [Example 11, 5-Amino-6-fluoro-N-{[1-(tetrahydro-2H-pyran-4-ylmethyl)-4-piperidinyl]methyl} quinoline-8-carboxamide L(+)-tartarate], the Emax (CHO) is 77%. Also, the EC50 under setting [1] was 0.3 nM.
As to `Nc1c(Cl)cc(C(=O)NCC2CCN(CC3CCOCC3)C2)c2ncccc12` (stereo not drawn) [Example 12, 5-Amino-6-chloro-N-{[1-(tetrahydro-2H-pyran-4-ylmethyl)-3-pyrrolidinyl]methyl} quinoline-8-carboxamide L(+)-tartarate], the Emax (CHO) amounted to 83%. Further, under setting [1], the EC50 is 0.2 nM.
On the same counts, the results for `Nc1c(Br)cc(C(=O)NCC2CCN(CC3CCOCC3)CC2)c2ncccc12` [Example 16, 5-Amino-6-bromo-N-{[1-(tetrahydro-2H-pyran-4-ylmethyl)-4-piperidinyl]methyl} quinoline-8-carboxamide L(+)-tartarate] are 62% and 0.08 nM.
As to `Nc1c(Br)cc(C(=O)NCC2C3CN(CC4CCOCC4)CC23)c2ncccc12` (stereo not drawn) [Example 17, 5-Amino-6-bromo-N-{[3-(tetrahydro-2H-pyran-4-ylmethyl)-3-azabicyclo[3.1.0]hex-6-yl]methyl}quinoline-8-carboxamide L(+)-tartarate], the Emax (CHO) was 72%. Under setting [1], the EC50 worked out at 0.8 nM.
As for `Nc1c(Cl)cc(C(=O)NCC2(F)CCN(CC3CCOCC3)CC2)c2ncccc12` [Example 20, 5-Amino-6-chloro-N-{[4-fluoro-1-(tetrahydro-2H-pyran-4-ylmethyl)-4-piperidinyl]methyl}quinoline-8-carboxamide L(+)-tartarate], the Emax (CHO) was found to be 58%. Under setting [1], the EC50 came out at 1.1 nM.
Turning to `Nc1c(Cl)cc(C(=O)NCC2(O)CCN(CC3CCOCC3)CC2)c2ncccc12` [Example 22, 5-Amino-6-chloro-N-{[4-hydroxy-1-(tetrahydro-2H-pyran-4-ylmethyl)-4-piperidinyl]methyl}quinoline-8-carboxamide L(+)-tartarate], the Emax (CHO) was 86%. Besides, the EC50 under setting [1] was 0.2 nM.
Take `Nc1c(Cl)cc(C(=O)NC2CCN(CC3(O)CCOCC3)CC2)c2ncccc12` [Example 24, 5-Amino-6-chloro-N-[1-(4-hydroxytetrahydro-2H-pyran-4-ylmethyl)-4-piperidinyl] quinoline-8-carboxamide]: the EC50 under setting [1] was determined as 4.1 nM. Moreover, the Emax under setting [2] worked out at 81%.
Take `Nc1c(Cl)cc(C(=O)NCC2C3CN(CC4(O)CCOCC4)CC23)c2ncccc12` (stereo not drawn) [Example 25, 5-Amino-6-chloro-N-{[3-(4-hydroxytetrahydro-2H-pyran-4-ylmethyl)-3-azabicyclo[3.1.0]hex-6-yl]methyl}quinoline-8-carboxamideL(+)-tartarate]: the Emax (CHO) worked out at 93%. The EC50 under setting [1] turned out to be 0.6 nM.
In the case of `Nc1c(Cl)cc(C(=O)NCC2CCN(CC3(O)CCOCC3)CC2)c2ncccc12` [Example 26, 5-Amino-6-chloro-N-{[1-(4-hydroxytetrahydro-2H-pyran-4-ylmethyl)-4-piperidinyl]methyl}quinoline-8-carboxamide], the Emax under setting [2] is 65%.
On to `Nc1c(F)cc(C(=O)NCC2CCN(CC3(O)CCOCC3)CC2)c2ncccc12` [Example 28], for which the Emax (CHO) was determined as 66%. Under setting [1], the EC50 came out at 0.1 nM.
Regarding `Nc1c(Cl)cc(C(=O)NCC2(O)CCN(CC3(O)CCOCC3)CC2)c2ncccc12` [Example 29, 5-Amino-6-chloro-N-{[4-hydroxy-1-(4-hydroxytetrahydro-2H-pyran-4-ylmethyl)-4-piperidinyl]methyl}quinoline-8-carboxamide L(+)-tartarate], the Emax (CHO) was determined as 84%. The EC50 under setting [1] turned out to be 0.1 nM.
On the same counts, the results for `Nc1c(Cl)cc(C(=O)NCC2CCN(CC3(F)CCOCC3)CC2)c2ncccc12` [Example 30, 5-Amino-6-chloro-N-{[1-(4-fluorotetrahydro-2-pyran-4-ylmethyl)-4-piperidinyl]methyl}quinoline-8-carboxamide L(+)tartarate] are 65% and 0.1 nM.
With `COC(=O)C(C)(C)CN1CCC(CNC(=O)c2cc(Cl)c(N)c3cccnc23)CC1` [Example 31, 5-Amino-6-chloro-N-{[1-(2-methoxycarbonyl-2-methylpropan-1-yl)-4-piperidinyl]methyl}quinoline-8-carboxamide], under setting [1], the EC50 was determined as 0.3 nM. The Emax under setting [2] was 60%.
As for `CC(C)(CN1CCC(CNC(=O)c2cc(Cl)c(N)c3cccnc23)CC1)C(=O)O` [Example 32, 5-Amino-6-chloro-N-{[1-(2,2-dimethylproponic acid-3-yl)-4-piperidinyl]methyl}quinoline-8-carboxamide L(+)-tartarate], the Emax (CHO) turned out to be 60%. For the same compound, the EC50 under setting [1] turned out to be 1.2 nM.
The like results for `CC(C)(O)CN1CCC(CNC(=O)c2cc(Cl)c(N)c3cccnc23)CC1` [Example 35, 5-Amino-6-chloro-N-{[1-(2-hydroxy-2-methylpropyl)-4-piperidinyl]methyl}quinoline-8-carboxamide L(+)-tartarate] were, in that order, 48% and 0.1 nM.
Turning to `CC(C)(O)CN1CCC(F)(CNC(=O)c2cc(Cl)c(N)c3cccnc23)CC1` [Example 36, 5-Amino-6-chloro-N-{[4-fluoro-1-(2-hydroxy-2-methylpropyl)-4-piperidinyl]methyl} quinoline-8-carboxamide], the EC50 under setting [1] is 2.3 nM. In addition, the Emax under setting [2] worked out at 74%.
For `CC(C)(O)CN1CCC(F)(CNC(=O)c2cc(Cl)c(N)c3cccnc23)CC1.Cl` [Example 38, 5-Amino-6-chloro-N-{[4-fluoro-1-(2-hydroxy-2-methylpropyl)-4-piperidinyl]methyl} quinoline-8-carboxamide hydrochloride], under setting [1], the maximal response (Emax) is 54% and the EC50 is 1.3 nM.
With `CC(C)(O)CN1CC2C(CNC(=O)c3cc(Cl)c(N)c4cccnc34)C2C1` (stereo not drawn) [Example 40, 5-Amino-6-chloro-N-{(3-(2-hydroxy-2-methylpropyl)-3-azabicyclo[3.1.0]hex-6-yl]methyl} quinoline-8-carboxamide L(+)-tartarate], the Emax (CHO) was determined as 63%. Further, the EC50 under setting [1] turned out to be 3.9 nM.
For the compound `CC(C)(O)CN1CCC(CNC(=O)c2cc(F)c(N)c3cccnc23)CC1` [Example 41, 5-Amino-6-fluoro-N-{[1-(2-hydroxy-2-methylpropyl)-4-piperidinyl]methyl}quinoline-8-carboxamide L(+)-tartarate], the Emax (CHO) worked out at 64%. For the same compound, under setting [1], the EC50 was 0.2 nM.
Regarding `CC(C)(O)CN1CCC(F)(CNC(=O)c2cc(F)c(N)c3cccnc23)CC1` [Example 42, 5-Amino-6-fluoro-N-{[4-fluoro-1-(2-hydroxy-2-methylpropyl)-4-piperidinyl]methyl} quinoline-8-carboxamide], the EC50 under setting [1] is 4 nM. The Emax under setting [2] is 74%.
